Source: US9920022B2, “Small molecule compound and synthesizing method and uses thereof” (TECHNODERMA MEDICINES PTE LTD., priority 2014, dated 2018)

Key:
[1] = test system: C3H mice; assay: Mouse experiment: hair growth after topical administration; type: in vivo; conditions: for day of topical administration on which the skin became black / day on which hair growth was observed: 20 μl/mouse topical twice/day
Description: A. Mouse Experiment: TMI-105795 is Used as Test Compound in the Experiment
The tested compound (TMI-105795) is sub-packaged into dose volume and kept at −20° C. before use. All tested compounds (including solvents) are labeled as TDM-001-1, TDM-001-2, TDM-001-3 and TDM-001-4.
Female C3H mice (35-39 days after birth at arrival) were obtained from Beijing Vital River Laboratory Animal Technology Co., Ltd. The mice were selected for inclusion based upon acceptable clinical condition and body weight. Animals were housed randomly 5 mice per cage before grouping. All mice were kept at least one week in acclimation in the animal facility prior to any procedures. Animal identification number was labeled on the tail and cage tag respectively.
The test compound is TMI-105795 (solvent is polyethylene glycol/ethanol (30/70)), it is sub-packaged into dose volume and kept in −20° C. before use. It was topically administered together with solvent twice every day at 9:30 am and 4:00 pm.
Hair growth grade, peripheral hair growth, scaling, erythema will be scored on Monday, Wednesday and Friday from the beginning on the Day 1 to the termination of the experiment.
All experimental mice were carefully dipped with the hair on the back of the rear leg with shaver. Care must be taken to avoid any irritation to the skin on the back of mouse. Skin color on the back was confirmed again. All mice must show pink skin, any mice that show signs of skin abrasion were excluded from the experiment. Mice were randomly divided into 5 groups and housed individually.
Body weight of each mouse is recorded before administration every morning. 20 μl corresponding solution is aspirated by pipette and applied to shaving area on the back of the mouse, and then the drug solution is uniformly applied to the back between rear legs with tips, about a region with a diameter of 1 cm. It is ensured that the administered region is the same one every day, and the mouse is put into the case after drying of liquid.
All mice are scored on Monday Wednesday and Friday each week from the beginning on the Day 1 to the termination of the study, using the following scoring guidelines:
a. Hair Growth Grade (Administration Area):
0=No color change, or hair growth on the skin
1=Skin color changes uniformly over the administration area from pink to gray/black with no visible hair growth;
2=Appearance of short and sparse hair growth;
3=Full thick hair growth similar to the surrounding normal hair coat.
b. Peripheral Hair Growth (Defined as Hair Growth that is in the Dipped Area, but not in the Administration Area):
0=No color change, or hair growth on the skin;
1=Skin color changes to gray/black with no visible hair growth;
2=Peripheral sparse hair growth;
3=Peripheral thick hair growth.

[2] = target: T1, Thyroid Receptor TRβ (Homo sapiens, UniProt P10828); assay: Thyroid Receptor TRβ Agonist Assay (luciferase reporter gene, co-transfected HEK-293 cells); type: cell-based; conditions: TRβ plasmid + thyroid hormone response element luciferase reporter in HEK-293 cells; 24 hours; maximum concentration 10 μM
T1 construct: expressed in transfected cells; host or cells: HEK-293
T1 sequence (P10828 1-461): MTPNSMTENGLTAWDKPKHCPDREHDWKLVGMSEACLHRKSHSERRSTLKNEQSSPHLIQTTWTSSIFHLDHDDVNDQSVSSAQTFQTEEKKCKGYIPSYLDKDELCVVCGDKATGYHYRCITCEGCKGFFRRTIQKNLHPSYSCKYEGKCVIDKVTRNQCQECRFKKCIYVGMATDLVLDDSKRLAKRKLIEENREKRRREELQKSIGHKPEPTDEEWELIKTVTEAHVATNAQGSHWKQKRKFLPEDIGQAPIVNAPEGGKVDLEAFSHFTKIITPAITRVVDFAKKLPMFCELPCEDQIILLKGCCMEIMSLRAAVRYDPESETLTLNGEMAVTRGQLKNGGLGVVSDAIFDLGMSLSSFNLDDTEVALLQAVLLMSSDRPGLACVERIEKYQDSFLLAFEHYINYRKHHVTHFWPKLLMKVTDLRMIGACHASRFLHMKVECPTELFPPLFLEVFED
Description: B: Thyroid Receptor TRβ Agonist Assay
(2) The residual poly-D-lysine is removed. On the 96-well plate, HEK-293 cells are plated at a density of 4.0×10^4 cells/well in DMEM medium containing 10% FBS. The cells are cultured at 37° C. overnight.
(1) The culture medium is removed 2 hours before transfection. 100 μl of DMEM culture medium containing 10% FBS treated by activated carbon is added to each well, and incubated at 37° C. for 2 hours.
3. For each reaction system, 50 ng thyroid receptor (TRβ) plasmid DNA and 50 ng luciferase reporter gene plasmid DNA of thyroid hormone response element are added. Mixing it completely by gentle pipeting.
4. 0.2 μl of transfection reagent X-tremeGENE HP is added to the diluted co-transfected DNA mixture. Mixing it completely by gentle pipeting.
(3) 10 μl of the complex is added to each well in a 96 well plate. Gently shaking the culturing plate to evenly distribute the complex.
(4) The culture is incubated at 37° C. for 24 hours.
(1) Preparation of compound diluent: for each compound, half-log dilutions of each test compound is prepared using DMEM medium containing 10% charcoal stripped FBS (containing 0.1% DMSO), with a maximum concentration of 10 μM of the test compound.
(2) Removing the culture medium and adding the formulated compound diluent (the final DMSO concentration is 0.1%).
(3) For blank control, DMEM medium containing 10% charcoal stripped FBS (containing 0.1% DMSO) is added.
(4) Incubating at 37° C. for 24 hours.
(1) Removing the culture medium, adding 40 μl phosphate (PBS) buffer to each well.
(2) Adding 40 μl Bright-Glo reagent to each well and vortexing for 30 seconds, followed by incubation in dark for 2 min.
(3) Transferring 70 μl cell lysate from each well into a white polystyrene 96-well plate.
(4) Detecting the Luciferase signal intensity by Envision.

[3] = all treatment groups, 3 weeks topical administration

SMILES	EC50 [2] [nM]	also measured
O=C(NO)C(=O)Nc1cc(Cl)c(Oc2ccc(O)c(Cc3ccc(F)cc3)c2)c(Cl)c1 [TMI-105795, N1-(3,5-dichloro-4-(3-(4-fluorobenzyl)-4-hydroxyphenoxy)phenyl)-N2-oxalyl hydroxylamine]	179	day of topical administration on which the skin became black ([1]; TDM-001-2 group, 0.005% (w/v)): 12 days; day on which hair growth was observed ([1]; TDM-001-2 group, 0.005% (w/v)): 16 days; day of topical administration on which the skin became black ([1]; TDM-001-3 group, 0.01% (w/v)): 2 days; day on which hair growth was observed ([1]; TDM-001-3 group, 0.01% (w/v)): 6 days; day of topical administration on which the skin became black ([1]; TDM-001-4 group, 0.05% (w/v)): 2 days; day on which hair growth was observed ([1]; TDM-001-4 group, 0.05% (w/v)): 8 days; body weight change during administration ([1]; all groups, 3 weeks topical administration): would not induce the loss of animal body weight; erythema of the skin [1, 3]: not observed; scaling of the skin [1, 3]: not observed; promoting hair growth compared with solvent group ([1]; female C3H mice, topical, twice/day, 5 days/week for 3 weeks, every dosing amount (0.005%, 0.01%, 0.05% w/v)): positive result in promoting hair growth; dose dependence of hair growth effect ([1]; female C3H mice, topical, 0.005%, 0.01%, 0.05% (w/v)): dose dependent effect is observed
CS(=O)(=O)c1ccc(Cc2cc(Oc3c(Cl)cc(NC(=O)C(=O)NO)cc3Cl)ccc2O)cc1 [TMI-105902, N1-(3,5-dichloro-4-(3-(4-methylsulphonylbenzyl)-4-hydroxyphenoxy)phenyl)-N2-oxalyl hydroxylamine]	250	
O=C(NO)C(=O)Nc1cc(Cl)c(Oc2ccc(O)c(Cc3ccc(Cl)c(Cl)c3)c2)c(Cl)c1 [TMI-105905, N1-(3,5-dichloro-4-(3-(3,4-dichlorobenzyl)-4-hydroxyphenoxy)phenyl)-N2-oxalyl hydroxylamine]	400	
O=C(NO)C(=O)Nc1cc(Cl)c(Oc2ccc(O)c(CN3CCC(O)CC3)c2)c(Cl)c1 [TMI-105956]	6520	
CN1CCN(Cc2cc(Oc3c(Cl)cc(NC(=O)C(=O)NO)cc3Cl)ccc2O)CC1 [TMI-105957, N1-(3,5-dichloro-4-(4-hydroxy-3-(4-methylpiperazine-1-methyl)phenoxy)phenyl)-N2-oxalyl hydroxylamine]	8760	
O=C(NO)C(=O)Nc1cc(Cl)c(Oc2ccc(O)c(CN3CCCC3)c2)c(Cl)c1 [TMI-105958, N1-(3,5-dichloro-4-(4-hydroxy-3-(methylpyrrolidin-1-methyl)phenoxy)phenyl)-N2-oxalyl hydroxylamine]	9700	
O=C(NO)C(=O)Nc1cc(Cl)c(Oc2ccc(O)c(CN3Cc4ccccc4C3)c2)c(Cl)c1 [TMI-105961, N1-(3,5-dichloro-4-(4-hydroxy-3-(isoindolin-2-methyl)phenoxy)phenyl)-N2-oxalyl hydroxylamine]	9240	
O=C1CN(Cc2cc(Oc3c(Cl)cc(NC(=O)C(=O)NO)cc3Cl)ccc2O)CCN1 [TMI-105963]	9580	
O=C(NO)C(=O)Nc1cc(Cl)c(Oc2ccc(O)c(Cc3cccc(F)c3)c2)c(Cl)c1 [TMI-105965]	96	
O=C(NO)C(=O)Nc1cc(Cl)c(Oc2ccc(O)c(Cc3ccccc3F)c2)c(Cl)c1 [TMI-105966]	61.1	

More lines, in order of falling EC50 [2], values ahead:

EC50 [2] [nM]	SMILES	also measured
3720	O=C(NO)C(=O)Nc1cc(Cl)c(Oc2ccc(O)c(CN3CCc4ccccc4C3)c2)c(Cl)c1 [TMI-105962, N1-(3,5-dichloro-4-(3-(3,4-dihydroisoquinolin-2(1H)-methyl)-4-hydroxyphenoxy)phenyl)-N2-oxalyl hydroxylamine]	
925	O=C(NO)C(=O)Nc1cc(Cl)c(Oc2ccc(O)c(CN3CCOCC3)c2)c(Cl)c1 [TMI-105906, N1-(3,5-dichloro-4-(4-hydroxy-3-(morpholinomethyl)phenoxy)phenyl)-N2-oxalyl hydroxylamine]	
617	O=C(NO)C(=O)Nc1cc(Cl)c(Oc2ccc(O)c(CN3CCC(Cc4ccccc4)CC3)c2)c(Cl)c1 [TMI-105959]	
136	Cc1ccc(Cc2cc(Oc3c(Cl)cc(NC(=O)C(=O)NO)cc3Cl)ccc2O)cc1 [TMI-105903, N1-(3,5-dichloro-4-(3-(4-methylbenzyl)-4-hydroxyphenoxy)phenyl)-N2-oxalyl hydroxylamine]	
